From PubChem BioAssay (NCI)
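Five concentrations, 48 hours, 96-well plates. The concentration for 50% growth inhibition is given as GI50. TGI marks complete inhibition of growth.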

Experiments:
Test in all cases: DTP human tumour cell line panel, 48 h
MALME-3M melanoma = system: MALME-3M melanoma
NCI-H226 lung = system: NCI-H226 lung
RPMI-8226 leukemia = system: RPMI-8226 leukemia
OVCAR-4 ovarian = system: OVCAR-4 ovarian
CCRF-CEM leukemia = system: CCRF-CEM leukemia
SNB-19 CNS = system: SNB-19 CNS
NCI-H23 lung = system: NCI-H23 lung
HT29 colon = system: HT29 colon
A498 renal = system: A498 renal
NCI/ADR-RES ovarian = system: NCI/ADR-RES ovarian

Compound | TGI (MALME-3M melanoma) [µM] | TGI (NCI-H226 lung) [µM] | TGI (RPMI-8226 leukemia) [µM] | TGI (OVCAR-4 ovarian) [µM] | TGI (CCRF-CEM leukemia) [µM] | TGI (SNB-19 CNS) [µM] | TGI (NCI-H23 lung) [µM] | TGI (HT29 colon) [µM] | TGI (A498 renal) [µM] | TGI (NCI/ADR-RES ovarian) [µM] | GI50 (NCI/ADR-RES ovarian) [µM] | GI50 (NCI-H226 lung) [µM] | GI50 (RPMI-8226 leukemia) [µM] | GI50 (OVCAR-4 ovarian) [µM] | GI50 (A498 renal) [µM] | GI50 (CCRF-CEM leukemia) [µM] | GI50 (SNB-19 CNS) [µM] | GI50 (NCI-H23 lung) [µM] | GI50 (HT29 colon) [µM] | GI50 (MALME-3M melanoma) [µM]
CN1CCN(C(=S)N(C)C(=O)c2ccco2)CC1 | > 100 | > 100 | > 100 | > 100 | > 100 | > 100 | > 100 | > 100 | – | – | – | – | – | – | – | – | – | – | – | –
O=C(COc1ccccc1Cl)N1N=C(c2ccc(Cl)cc2)CC1(O)c1ccccc1 (stereo not given) | > 100 | > 100 | > 100 | > 100 | – | > 100 | > 100 | > 100 | – | – | – | – | – | – | – | – | – | – | – | –
O=c1cc(-c2cccs2)[nH]c2cc3c(cc12)OCO3 | > 100 | > 39.4 | > 100 | > 22.2 | > 100 | > 100 | > 100 | > 74.7 | 16.2 | – | – | – | – | – | – | – | – | – | – | –
COC(=O)c1sc(C(=O)OC)c2c1CS(=O)C2 | > 100 | > 100 | > 100 | > 100 | > 100 | > 100 | > 100 | > 100 | > 100 | – | – | – | – | – | – | – | – | – | – | –
O=C1C[C@H]2CCCN2[C@@H](c2ccccc2)C1 | > 100 | > 100 | > 100 | > 100 | > 100 | > 100 | > 100 | > 100 | > 100 | – | – | – | – | – | – | – | – | – | – | –
CCOC(=O)Cc1nc2ccc3c(c2[nH]c1=O)C(=O)c1ccccc1C3=O | > 100 | > 100 | > 100 | > 100 | > 100 | > 100 | > 100 | > 100 | > 100 | – | – | – | – | – | – | – | – | – | – | –
CNC(=S)Nc1ccc(OC)c2ccccc12 | > 10 | – | > 10 | > 10 | > 10 | > 10 | > 10 | > 10 | – | > 10 | – | – | – | – | – | – | – | – | – | –
CCc1cccc(C)c1NS(=O)(=O)c1ccccc1 | > 100 | > 100 | > 100 | > 100 | > 100 | – | > 100 | > 100 | > 100 | – | – | – | – | – | – | – | – | – | – | –
O=C(O)CCNS(=O)(=O)c1ccc(NC(=O)c2ccccc2)cc1 | > 100 | – | > 100 | > 100 | > 100 | > 100 | > 100 | > 100 | > 100 | – | – | – | – | – | – | – | – | – | – | –
O=S(=O)(/N=c1\scc(-c2ccccc2)n1-c1ccccc1)c1ccc(N2N=C3c4ccccc4CC3C2c2ccc(Cl)cc2)cc1 (stereo not given) | – | > 100 | > 100 | > 100 | 59.3 | > 100 | 51.3 | > 100 | > 100 | > 100 | 51.5 | 94.6 | 21.5 | 63.8 | 79.8 | 18.6 | 78.8 | 21 | 44 | –
Cn1ccnc1CCc1c(Cl)cccc1Cl | > 100 | > 100 | > 100 | > 100 | > 100 | – | > 100 | > 100 | > 100 | – | – | – | – | – | – | – | – | – | – | –
O=C1C2C3C=C4c5ccccc5N(c5ccccc5)C4(C2C(=O)N1c1ccccc1)C1C(=O)N(c2ccccc2)C(=O)C31 (stereo not given) | > 100 | – | – | – | > 100 | > 100 | > 100 | > 100 | 5.13 | – | – | – | – | – | – | – | – | – | – | –
COc1cccc(-c2nc3cc(NC(=O)c4ccc(Cl)c(C#N)c4)ccc3o2)c1 | – | > 100 | – | 3.43 | > 100 | > 100 | 4.15 | – | – | 4.31 | 1.42 | 6.49 | – | 1.8 | – | > 100 | 3.18 | 1.69 | – | –
CC1=C2C(=C[C@@](C)(CO)[C@@H]2OC(=O)N(C)CCN(C)C(=O)OC(C)(C)C)C(=O)[C@](C)(O)C12CC2 | – | 34.7 | 43.8 | 22.6 | > 50 | > 50 | 15.9 | > 50 | 20.1 | 23.7 | 3.05 | 11.7 | 5.83 | 4.68 | 8.8 | 18.8 | 10.9 | 2.08 | 2.32 | –
Cn1c(=O)c(N=Nc2c(=O)n(C)c(=O)n3c2[nH]c2ccccc23)c2[nH]c3ccccc3n2c1=O | > 100 | > 100 | > 100 | > 100 | > 100 | 61.1 | > 100 | > 100 | > 100 | – | – | – | – | – | – | – | – | – | – | –
O=C(N/N=C/c1ccccc1O)N/N=C/c1ccccc1O | > 100 | > 100 | > 100 | > 100 | > 100 | > 100 | > 100 | > 100 | > 100 | – | – | – | – | – | – | – | – | – | – | –
C=C(c1ccccc1)C1(O)CCCCC1N (stereo not given) | > 100 | > 100 | > 100 | > 100 | 95.3 | > 100 | > 100 | > 100 | > 100 | – | – | – | – | – | – | – | – | – | – | –
c1cc[c]([Sn][c]2ccccc2)cc1 | 47.7 | 54.8 | 49.2 | 55.2 | 62.7 | 61 | 23.3 | 37 | – | – | – | 21.8 | 19.8 | 24 | – | 21.9 | 20 | 15 | 20.2 | 23.2
O=C(NCCCOC(=O)CCCCCCCCC(=O)OCCCNC(=O)NC(=O)c1c[nH]c(=O)[nH]c1=O)NC(=O)c1c[nH]c(=O)[nH]c1=O | > 100 | – | > 100 | > 100 | > 100 | > 100 | > 100 | – | > 100 | – | – | – | – | – | – | – | – | – | – | –
COc1cc(Cl)cc(=O)c(O)c1OC | > 100 | > 87.2 | > 100 | > 100 | > 100 | > 100 | > 100 | > 100 | > 100 | – | – | – | – | – | – | – | – | – | – | –
Clc1ccc(-c2cn3ccnc3c(-c3ccc(Cl)cc3)n2)cc1 | – | > 100 | > 100 | – | – | > 100 | 80.1 | > 100 | 77.2 | 47.5 | 11.2 | 40.8 | 10.1 | – | 30.7 | – | 45.8 | 24.3 | 12.5 | –
